Assay results: the supplement of paper PMC10307832

Columns and labels:
Test in all cases: relative viability (nuclei count vs DMSO), 5 days (fraction); higher = more cells survive
Avagacestat + Crizotinib = compound: NC(=O)[C@@H](CCC(F)(F)F)N(Cc1ccc(-c2ncon2)cc1F)S(=O)(=O)c1ccc(Cl)cc1 [Avagacestat] + C[C@@H](Oc1cc(-c2cnn(C3CCNCC3)c2)cnc1N)c1c(Cl)ccc(F)c1Cl [Crizotinib] (partner 1 µM)
In short: (§1)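 Lung cancer cell lines were pin-tool dosed in 1536-well plates on the day after seeding, with either a lone drug or a fixed anchor-drug dose plus five library-drug doses (not always all listed) in √10 steps. Nuclei were counted on 4× images after 5 days. Relative viability is the ratio of treated-well to vehicle-well nuclei counts, with each value a median of duplicate plates.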

Avagacestat + Vorinostat = compound: NC(=O)[C@@H](CCC(F)(F)F)N(Cc1ccc(-c2ncon2)cc1F)S(=O)(=O)c1ccc(Cl)cc1 [Avagacestat] + O=C(CCCCCCC(=O)Nc1ccccc1)NO [Vorinostat] (partner 1 µM)
In short: as §1

Avagacestat + Dasatinib = compound: NC(=O)[C@@H](CCC(F)(F)F)N(Cc1ccc(-c2ncon2)cc1F)S(=O)(=O)c1ccc(Cl)cc1 [Avagacestat] + Cc1nc(Nc2ncc(C(=O)Nc3c(C)cccc3Cl)s2)cc(N2CCN(CCO)CC2)n1 [Dasatinib] (partner 0.075 µM)
In short: as §1

Avagacestat + Navitoclax = compound: NC(=O)[C@@H](CCC(F)(F)F)N(Cc1ccc(-c2ncon2)cc1F)S(=O)(=O)c1ccc(Cl)cc1 [Avagacestat] + CC1(C)CCC(c2ccc(Cl)cc2)=C(CN2CCN(c3ccc(C(=O)NS(=O)(=O)c4ccc(N[C@H](CCN5CCOCC5)CSc5ccccc5)c(S(=O)(=O)C(F)(F)F)c4)cc3)CC2)C1 [Navitoclax] (partner 0.5 µM)
In short: as §1

Cell Line	relative viability (Avagacestat + Crizotinib; first compound 0.08 µM)	relative viability (Avagacestat + Crizotinib; first compound 0.253 µM)	relative viability (Avagacestat + Crizotinib; first compound 0.8 µM)	relative viability (Avagacestat + Crizotinib; first compound 2.53 µM)	relative viability (Avagacestat + Crizotinib; first compound 8 µM)	relative viability (Avagacestat + Vorinostat; first compound 0.08 µM)	relative viability (Avagacestat + Vorinostat; first compound 0.253 µM)	relative viability (Avagacestat + Vorinostat; first compound 0.8 µM)	relative viability (Avagacestat + Vorinostat; first compound 2.53 µM)	relative viability (Avagacestat + Vorinostat; first compound 8 µM)	relative viability (Avagacestat + Dasatinib; first compound 0.08 µM)	relative viability (Avagacestat + Dasatinib; first compound 0.253 µM)	relative viability (Avagacestat + Dasatinib; first compound 0.8 µM)	relative viability (Avagacestat + Dasatinib; first compound 2.53 µM)	relative viability (Avagacestat + Dasatinib; first compound 8 µM)	relative viability (Avagacestat + Navitoclax; first compound 0.08 µM)	relative viability (Avagacestat + Navitoclax; first compound 0.253 µM)	relative viability (Avagacestat + Navitoclax; first compound 0.8 µM)	relative viability (Avagacestat + Navitoclax; first compound 2.53 µM)	relative viability (Avagacestat + Navitoclax; first compound 8 µM)
H3255	1.05	1.07	1.01	0.872	0.865	0.825	0.89	1.03	0.861	0.7	0.362	0.347	0.57	0.379	0.313	0.504	0.59	0.71	0.431	0.498
EPLC-272H	1.06	0.988	1.03	0.969	0.799	0.413	0.318	0.539	0.367	0.321	0.328	0.339	0.289	0.348	0.266	1.51	1.13	1.32	1.21	0.964
SK-LU-1	0.843	0.858	0.946	0.786	0.753	0.885	0.714	0.865	0.636	0.71	0.172	0.138	0.18	0.142	0.189	1.11	1.08	1	0.706	0.93
NCI-H1793						0.841	0.985	0.773	0.865	0.993	0.445	0.383	0.319	0.282	0.337	0.434	0.491	0.507	0.347	0.396
EKVX	1.02	1.35	1.06	0.899	0.857	0.826	0.783	0.904	0.75	0.68	0.621	0.491	0.512	0.473	0.382	1.12	1.15	1.04	0.792	0.853
ChaGo-K-1	1.06	1.31	1.11	1.05	0.974	0.783	0.874	0.79	0.755	0.692	0.616	0.641	0.628	0.551	0.608	0.987	0.926	1.32	1.24	1.17
NCI-H2347	0.693	0.74	0.692	0.511	0.66	0.599	0.646	0.78	0.499	0.522	0.292	0.292	0.369	0.297	0.331	0.907	0.866	0.923	0.663	0.797
EMC-BAC-2	0.797	0.844	0.766	0.704	0.719	0.662	0.581	0.803	0.535	0.51	0.342	0.298	0.301	0.292	0.308	1.46	1.54	1.38	1.1	1.17
LU99A	0.521	0.646	0.571	0.595	0.628	0.611	0.541	0.624	0.468	0.481	0.483	0.542	0.455	0.444	0.471	0.869	0.8	0.776	0.852	0.777
LXF-289	0.852	0.941	0.795	0.816	0.774	0.954	0.884	0.791	0.921	0.86	0.196	0.183	0.168	0.191	0.152	0.964	0.996	1	1	0.885
NCI-H1395						0.64	0.519	0.719	0.429	0.63	0.412	0.405	0.416	0.372	0.442	1.12	1.23	1.03	0.903	1.11
NCI-H596	1.1	0.944	1.02	0.78	0.925	0.591	0.643	0.609	0.588	0.627	0.592	0.651	0.654	0.451	0.648	1.21	1.02	0.928	0.792	0.865
201T	1.06	0.991	1.03	1.04	1.01	1.01	1.03	0.925	0.857	0.86	0.668	0.599	0.565	0.586	0.608	1.19	1.21	1.25	1.19	1.18
NCI-H1944	1.09	1.2	0.958	0.915	0.919	0.716	0.635	0.497	0.554	0.54	0.199	0.201	0.227	0.202	0.222	1.14	1.09	1.03	0.989	0.993
NCI-H3122	0.318	0.287	0.291	0.289	0.288	1.07	1.4	1.01	1.02	0.918	0.944	0.759	0.843	0.815	0.774	0.95	1.09	1.08	1.01	1.03
NCI-H1734	0.969	0.755	0.705	0.733	0.575	0.876	0.901	0.829	0.761	0.824	0.545	0.542	0.48	0.471	0.432	1.11	0.96	0.875	0.777	0.724
NCI-H1792	1.42	1.33	1.45	0.992	0.805						1.33		0.666		0.706	1.25	0.584	1.13	0.538	0.417

Cell Line	relative viability (Avagacestat + Crizotinib; first compound 0.08 µM)	relative viability (Avagacestat + Crizotinib; first compound 0.253 µM)	relative viability (Avagacestat + Crizotinib; first compound 0.8 µM)	relative viability (Avagacestat + Crizotinib; first compound 2.53 µM)	relative viability (Avagacestat + Crizotinib; first compound 8 µM)	relative viability (Avagacestat + Vorinostat; first compound 0.08 µM)	relative viability (Avagacestat + Vorinostat; first compound 0.253 µM)	relative viability (Avagacestat + Vorinostat; first compound 0.8 µM)	relative viability (Avagacestat + Vorinostat; first compound 2.53 µM)	relative viability (Avagacestat + Vorinostat; first compound 8 µM)	relative viability (Avagacestat + Dasatinib; first compound 0.08 µM)	relative viability (Avagacestat + Dasatinib; first compound 0.253 µM)	relative viability (Avagacestat + Dasatinib; first compound 0.8 µM)	relative viability (Avagacestat + Dasatinib; first compound 2.53 µM)	relative viability (Avagacestat + Dasatinib; first compound 8 µM)	relative viability (Avagacestat + Navitoclax; first compound 0.08 µM)	relative viability (Avagacestat + Navitoclax; first compound 0.253 µM)	relative viability (Avagacestat + Navitoclax; first compound 0.8 µM)	relative viability (Avagacestat + Navitoclax; first compound 2.53 µM)	relative viability (Avagacestat + Navitoclax; first compound 8 µM)
NCI-H2126	1.07	1.14	0.977	1.04	1.04	0.792	0.715	0.842	0.711	0.753	0.588	0.587	0.606	0.467	0.582	1.02	0.899	0.875	0.798	0.832
NCI-H23	0.547	0.473	0.627	0.471	0.345	0.921	0.66	0.665	0.69	0.592	0.859	0.875	0.937	0.733	0.912	0.876	0.993	0.99	0.877	0.943
EBC-1	0.213	0.196	0.2	0.21	0.203											0.342	0.392	0.334	0.372	0.296
NCI-H1563	0.883	0.751	0.83	0.801	0.708						0.53	0.455	0.484	0.453	0.442					
NCI-H1648						0.512	0.374	0.31	0.35	0.276										
LCLC-103H	1.03	1.09	1.01	0.967	0.831	0.807	0.759	0.846	0.864	0.673	0.456	0.46	0.508	0.368	0.678					
SW 900						0.502	0.828	0.554	0.535	0.641	0.821	0.599	0.547	0.848	0.558					
NCI-H650	0.625	0.762	0.692	0.744	0.823	0.439	0.537	0.56	0.455	0.435	0.499	0.398	0.481	0.456	0.451					
NCI-H1299	1.01	1.05	0.952	0.98	0.91											1.04	1.03	1.08	1.08	1.04
IA-LM	1.98	1.36	1.09	0.879	1.1	1.56	1.59	1.51	0.957	0.992						1.25	1.3	1.34	1.21	1.18
NCI-H358	0.555	0.579	0.457	0.609	0.545	0.911	0.762	0.733	0.557	0.679	0.163	0.159	0.164	0.155	0.148					
NCI-H1703	0.975	0.777	0.864	0.587	0.581											1.16	0.993	1.17	1.11	0.891
HCC-44	0.92	0.905	0.846	0.838	0.699	1.09	1.14	1.19	1.07	1.21						1.14	1.13	0.948	0.76	0.874
ABC-1	1.05	1.59	1.53	1.09	1.09	1.22	1.14	1.71	1.15	1.02	0.648	0.644	0.644	0.725	0.59					
NCI-H522						1.04	1.01	0.928	0.866	0.792	0.942	0.886	0.861	0.927	1.07					
NCI-H661	1.12	1.06	1.05	1.3	0.968	0.845	0.98	0.827	0.784	0.785	1.05	0.962	1.07	0.891	0.852					
